Measurements: patent US5401490A, “Markers of tissue hypoxia” (priority 1989, dated 1995)

System: BALB/C mice bearing subcutaneous EMT-6 tumors
Experiment: Tissue distribution of radioactivity after intravenous injection
Assay type: in vivo
Details: for Tissue to Blood Ratio, Intestine / Tissue to Blood Ratio, Kidney / Tissue to Blood Ratio, Liver / Tissue to Blood Ratio, Lung / Tissue to Blood Ratio, Muscle / Tissue to Blood Ratio, Stomach / Tissue to Blood Ratio, Tumor / Tissue to Blood Ratio, Bone / Tissue to Blood Ratio, Carcass / Tissue to Blood Ratio, Heart / Tissue to Blood Ratio, Spleen: i.v.; for deiodination (increase in thyroid radioactivity): longer periods (>4 h)
Excerpt: Tables 1 and 2 show the percent of injected IAZG and IAZA respectively per gram of wet tissue for selected tissues excised from BALB/C mice bearing EMT-6 tumors. This tumor model is known to have a high hypoxic fraction (0.33) (16). […] Hepatobiliary excretion may play a role in blood clearance as evidenced by elevated liver radioactivity and the appearance of activity in the intestine. Some oxidative or reductive metabolites of the 2-nitroimidazoles may also become bound to liver tissue, as was postulated in an in vivo study with ^14 C-MISO (6). This supposition is supported by the persistence of liver radioactivity at longer time periods. […] At 8 and 24 hours thyroid levels of IAZG are 7.2 and 30.9% of the total body activity and for IAZA they are 7.9 and 33.8% of total body activity. EXAMPLE 11 TISSUE DISTRIBUTION AND EXCRETION Tumor propagation of EMT-6 tumors in BALB/C mice was accomplished by subcutaneous injection of a cell suspension (10^5 cells in 0.1 mL) as described previously (10). Tumors reached about 10 mm in diameter (≈0.5 g) at 12 to 14 days, at which time each animal was given a bolus intravenous injection of ^125 I-labelled test drug via the tail vein (40 to 60 kBq in 0.1 mL). At set time periods the animals were asphyxiated with CO2 and exsanguinated via cardiac puncture. Tissues were dissected, weighed wet into vials and counted for ^125 I-activity. Whole-body activity was determined by summation of total activity in tissues and in residual carcass, and blood activity was determined from the blood aliquot, assuming blood to be 6.5% of the total body weight. EXAMPLE 12 Male BALB/c mice (20-25 g) were inoculated subcutaneously in the left flank with a suspension of murine EMT-6 cells (10^5 cells in 0.1 mL) (14). After 12 to 14 days, when the tumors reached the desired size (8-10 mm diameter), each mouse received a single intravenous (iv) injection of ^125 I-IAZA (59 kBq in 0.1 mL). […] Heart, lung, liver, spleen, muscle, bone, thyroid, kidney, stomach, small intestine, tail, tumor and skin were removed upon necropsy, weighed and analyzed for ^125 I using a Beckman Model 8000 gamma scintillation counter. The remaining carcass mass was also weighed and radioassayed.

O=[N+]([O-])c1nccn1[C@@H]1O[C@H](CI)[C@H](O)[C@H](O)[C@H]1O [IAZG, 1-(6-iodo-6-deoxy-β-D-galactopyranosyl)-2-nitroimidazole]
Tissue to Blood Ratio, Intestine (0.25 h): 3.65
Tissue to Blood Ratio, Kidney (0.25 h): 8.58
Tissue to Blood Ratio, Liver (0.25 h): 3.00
Tissue to Blood Ratio, Lung (0.25 h): 1.51
Tissue to Blood Ratio, Muscle (0.25 h): 0.72
Tissue to Blood Ratio, Stomach (0.25 h): 1.79
Tissue to Blood Ratio, Tumor (0.25 h): 0.95
Tissue to Blood Ratio, Intestine (0.50 h): 3.19
Tissue to Blood Ratio, Kidney (0.50 h): 8.07
Tissue to Blood Ratio, Liver (0.50 h): 2.66
Tissue to Blood Ratio, Lung (0.50 h): 1.31
Tissue to Blood Ratio, Muscle (0.50 h): 0.63
Tissue to Blood Ratio, Stomach (0.50 h): 1.92
Tissue to Blood Ratio, Tumor (0.50 h): 1.31
Tissue to Blood Ratio, Intestine (1 h): 1.42
Tissue to Blood Ratio, Kidney (1 h): 5.56
Tissue to Blood Ratio, Liver (1 h): 1.82
Tissue to Blood Ratio, Lung (1 h): 0.90
Tissue to Blood Ratio, Muscle (1 h): 0.48
Tissue to Blood Ratio, Stomach (1 h): 1.64
Tissue to Blood Ratio, Tumor (1 h): 1.47
Tissue to Blood Ratio, Intestine (2 h): 1.48
Tissue to Blood Ratio, Kidney (2 h): 5.06
Tissue to Blood Ratio, Liver (2 h): 2.55
Tissue to Blood Ratio, Lung (2 h): 1.13
Tissue to Blood Ratio, Muscle (2 h): 0.62
Tissue to Blood Ratio, Stomach (2 h): 2.61
Tissue to Blood Ratio, Tumor (2 h): 1.45
Tissue to Blood Ratio, Intestine (4 h): 1.04
Tissue to Blood Ratio, Kidney (4 h): 4.00
Tissue to Blood Ratio, Liver (4 h): 1.51
Tissue to Blood Ratio, Lung (4 h): 1.16
Tissue to Blood Ratio, Muscle (4 h): 0.49
Tissue to Blood Ratio, Stomach (4 h): 1.85
Tissue to Blood Ratio, Tumor (4 h): 1.56
Tissue to Blood Ratio, Intestine (8 h): 1.05
Tissue to Blood Ratio, Kidney (8 h): 2.47
Tissue to Blood Ratio, Liver (8 h): 1.24
Tissue to Blood Ratio, Lung (8 h): 0.98
Tissue to Blood Ratio, Muscle (8 h): 0.36
Tissue to Blood Ratio, Stomach (8 h): 2.50
Tissue to Blood Ratio, Tumor (8 h): 1.34
thyroid levels (8 hours): 7.2 % of the total body activity
Tissue to Blood Ratio, Intestine (24 h): 0.83
Tissue to Blood Ratio, Kidney (24 h): 1.52
Tissue to Blood Ratio, Liver (24 h): 1.32
Tissue to Blood Ratio, Lung (24 h): 1.26
Tissue to Blood Ratio, Muscle (24 h): 0.38
Tissue to Blood Ratio, Stomach (24 h): 0.87
Tissue to Blood Ratio, Tumor (24 h): 1.41
thyroid levels (24 hours): 30.9 % of the total body activity
injected dose in tumor at maximal tumor to blood ratio (at 4 h): 0.23 % of the injected dose
maximal tumor to blood ratio (at 4 h): 1.56
deiodination (increase in thyroid radioactivity): evidence of deiodination at longer periods (>4 h)

O=[N+]([O-])c1nccn1[C@@H]1O[C@H](CI)[C@@H](O)[C@@H]1O [IAZA, 1-(5-iodo-5-deoxy-β-D-arabino-furanosyl)-2-nitroimidazole]
Tissue to Blood Ratio, Bone (0.25 h): 0.50
Tissue to Blood Ratio, Carcass (0.25 h): 1.02
Tissue to Blood Ratio, Heart (0.25 h): 1.78
Tissue to Blood Ratio, Intestine (0.25 h): 2.06
Tissue to Blood Ratio, Kidney (0.25 h): 2.49
Tissue to Blood Ratio, Liver (0.25 h): 3.29
Tissue to Blood Ratio, Lung (0.25 h): 1.75
Tissue to Blood Ratio, Muscle (0.25 h): 1.17
Tissue to Blood Ratio, Spleen (0.25 h): 1.36
Tissue to Blood Ratio, Stomach (0.25 h): 1.66
Tissue to Blood Ratio, Tumor (0.25 h): 0.97
Tissue to Blood Ratio, Bone (0.50 h): 0.63
Tissue to Blood Ratio, Carcass (0.50 h): 1.18
Tissue to Blood Ratio, Heart (0.50 h): 1.64
Tissue to Blood Ratio, Intestine (0.50 h): 2.04
Tissue to Blood Ratio, Kidney (0.50 h): 2.61
Tissue to Blood Ratio, Liver (0.50 h): 3.29
Tissue to Blood Ratio, Lung (0.50 h): 1.74
Tissue to Blood Ratio, Muscle (0.50 h): 1.28
Tissue to Blood Ratio, Spleen (0.50 h): 1.38
Tissue to Blood Ratio, Stomach (0.50 h): 2.19
Tissue to Blood Ratio, Tumor (0.50 h): 1.60
Tissue to Blood Ratio, Bone (1 h): 0.63
Tissue to Blood Ratio, Carcass (1 h): 1.21
Tissue to Blood Ratio, Heart (1 h): 1.51
Tissue to Blood Ratio, Intestine (1 h): 2.52
Tissue to Blood Ratio, Kidney (1 h): 2.38
Tissue to Blood Ratio, Liver (1 h): 3.06
Tissue to Blood Ratio, Lung (1 h): 1.63
Tissue to Blood Ratio, Muscle (1 h): 1.19
Tissue to Blood Ratio, Spleen (1 h): 1.35
Tissue to Blood Ratio, Stomach (1 h): 2.15
Tissue to Blood Ratio, Tumor (1 h): 1.46
Tissue to Blood Ratio, Bone (2 h): 0.64
Tissue to Blood Ratio, Carcass (2 h): 1.60
Tissue to Blood Ratio, Heart (2 h): 1.13
Tissue to Blood Ratio, Intestine (2 h): 1.90
Tissue to Blood Ratio, Kidney (2 h): 1.98
Tissue to Blood Ratio, Liver (2 h): 2.39
Tissue to Blood Ratio, Lung (2 h): 1.26
Tissue to Blood Ratio, Muscle (2 h): 0.75
Tissue to Blood Ratio, Spleen (2 h): 1.02
Tissue to Blood Ratio, Stomach (2 h): 3.62
Tissue to Blood Ratio, Tumor (2 h): 2.80
Tissue to Blood Ratio, Bone (4 h): 0.60
Tissue to Blood Ratio, Carcass (4 h): 1.98
Tissue to Blood Ratio, Heart (4 h): 0.71
Tissue to Blood Ratio, Intestine (4 h): 1.80
Tissue to Blood Ratio, Kidney (4 h): 1.46
Tissue to Blood Ratio, Liver (4 h): 2.11
Tissue to Blood Ratio, Lung (4 h): 1.00
Tissue to Blood Ratio, Muscle (4 h): 0.53
Tissue to Blood Ratio, Spleen (4 h): 0.78
Tissue to Blood Ratio, Stomach (4 h): 4.02
Tissue to Blood Ratio, Tumor (4 h): 4.62
Tissue to Blood Ratio, Bone (8 h): 0.57
Tissue to Blood Ratio, Carcass (8 h): 2.00
Tissue to Blood Ratio, Heart (8 h): 1.57
Tissue to Blood Ratio, Intestine (8 h): 5.50
Tissue to Blood Ratio, Kidney (8 h): 2.43
Tissue to Blood Ratio, Liver (8 h): 3.36
Tissue to Blood Ratio, Lung (8 h): 2.36
Tissue to Blood Ratio, Muscle (8 h): 2.57
Tissue to Blood Ratio, Spleen (8 h): 1.29
Tissue to Blood Ratio, Stomach (8 h): 6.21
Tissue to Blood Ratio, Tumor (8 h): 8.71
thyroid levels (8 hours): 7.9 % of the total body activity
Tissue to Blood Ratio, Bone (24 h): 0.59
Tissue to Blood Ratio, Carcass (24 h): 1.03
Tissue to Blood Ratio, Heart (24 h): 1.14
Tissue to Blood Ratio, Intestine (24 h): 1.11
Tissue to Blood Ratio, Kidney (24 h): 1.41
Tissue to Blood Ratio, Liver (24 h): 2.64
Tissue to Blood Ratio, Lung (24 h): 1.00
Tissue to Blood Ratio, Muscle (24 h): 0.54
Tissue to Blood Ratio, Spleen (24 h): 0.97
Tissue to Blood Ratio, Stomach (24 h): 1.81
Tissue to Blood Ratio, Tumor (24 h): 5.56
thyroid levels (24 hours): 33.8 % of the total body activity
injected dose in tumor at maximum tumor to blood ratio (at 8 h): 1.22 % of the injected dose
maximum tumor to blood ratio (at 8 h): 8.7
tumor to blood ratio (text, FIG. 7) (at 24 h): > 5.5
uptake in EMT-6 tumor tissue (in words): taken up preferentially in EMT-6 tumor tissue
deiodination (increase in thyroid radioactivity): evidence of deiodination at longer periods (>4 h)
